From ChEMBL document CHEMBL1201862, “PubChem BioAssay data set” (2004)
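Assay format: 96-well plates, 48-hour exposure. Here, GI50 denotes the concentration required for 50% inhibition of growth.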 Activity calls are given as the source filed them. No stated cut-off is given here; in the data, active = GI50 up to about 1.1 µM and inactive = higher.

Columns and labels:
Assay in all cases: growth of human tumour cells (NCI), 48 h
[1] = test system: HOP-62
[2] = test system: CCRF-CEM
[3] = test system: BT-549
[4] = test system: RPMI-8226
[5] = test system: MOLT-4
[6] = test system: CAKI-1
[7] = test system: MCF7
[8] = test system: LOX IMVI
[9] = test system: SW-620
[10] = test system: IGROV-1
[11] = test system: ACHN
[12] = test system: SR
[13] = test system: MDA-MB-231
[14] = test system: MDA-N
[15] = test system: HOP-92
[16] = test system: OVCAR-3
[17] = test system: SK-MEL-5
[18] = test system: SF-268

Measured: GI50

CS(=O)(=O)OCOS(C)(=O)=O
inactive: [1] > 100 µM | [2] 18.5 µM | [3] > 100 µM | [4] 31.9 µM | [5] 22.9 µM | [6] 69 µM | [7] 34.4 µM | [8] 43.8 µM | [9] 34.4 µM | [10] > 100 µM | [11] 58.9 µM | [12] 20.2 µM | [13] > 100 µM | [14] > 100 µM | [15] > 100 µM | [16] > 100 µM | [17] > 100 µM

COc1cccc(/N=N/C(=NNC(=O)c2ccc(C)cc2)c2ccc(N(C)C)cc2)c1
inactive: [2] > 100 µM | [3] > 100 µM | [4] > 100 µM | [5] > 100 µM | [6] > 100 µM | [7] > 100 µM | [18] > 100 µM | [8] > 100 µM | [9] > 100 µM | [10] > 100 µM | [11] > 100 µM | [12] 62.5 µM | [13] > 100 µM | [14] 39.7 µM | [15] > 100 µM | [16] 65.2 µM | [17] 98.2 µM

CSc1[nH]nc(N)c1C(=O)Nc1ccc(C)cc1
inactive: [1] > 100 µM | [2] 26.1 µM | [3] 90.6 µM | [4] 51.3 µM | [5] 26.2 µM | [6] 40.1 µM | [7] 39.5 µM | [18] 47.5 µM | [8] 38.6 µM | [9] 48.1 µM | [11] 55.2 µM | [12] 30.6 µM | [13] 63.2 µM | [14] 49.5 µM | [15] 19.5 µM | [16] 77.3 µM | [17] 31 µM

CCCCC[C@@H]1OC(=O)[C@@]2(CC3c4ccccc4C2c2ccccc23)[C@H]1C(=O)OC
inactive: [1] > 100 µM | [2] 17.2 µM | [3] > 100 µM | [4] 9.68 µM | [5] > 10 µM | [6] 42.6 µM | [7] 21.8 µM | [18] > 100 µM | [8] 71.4 µM | [9] 52 µM | [10] > 100 µM | [11] 45.5 µM | [12] 10.1 µM | [13] > 100 µM | [14] 79.6 µM | [15] > 100 µM | [16] 92.5 µM | [17] 17.2 µM
